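Values below derive from 48-hour exposures of cells grown in 96-well plates, with endpoints linearly interpolated between the two concentrations bracketing the appropriate inhibition level. Abbreviation: GI50, concentration required for 50% inhibition of growth.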 Calls of active or inactive are those of the source. Rule as the data show it: active = GI50 up to about 1.1 µM and inactive = higher.
Assays:
Experiment in all cases: NCI-60 cell line screen, 48 h
SW-620 = system: SW-620
HOP-62 = system: HOP-62
M14 = system: M14
COLO 205 = system: COLO 205
UO-31 = system: UO-31
RPMI-8226 = system: RPMI-8226
SK-MEL-2 = system: SK-MEL-2
ACHN = system: ACHN
NCI-H460 = system: NCI-H460
CAKI-1 = system: CAKI-1
SK-MEL-5 = system: SK-MEL-5
SK-OV-3 = system: SK-OV-3
KM12 = system: KM12
SF-268 = system: SF-268
SNB-19 = system: SNB-19
NCI-H522 = system: NCI-H522
OVCAR-4 = system: OVCAR-4
A549 = system: A549
UACC-257 = system: UACC-257
NCI-H226 = system: NCI-H226

Structure (SMILES)	GI50 (SW-620)	GI50 (HOP-62)	GI50 (M14)	GI50 (COLO 205)	GI50 (UO-31)	GI50 (RPMI-8226)	GI50 (SK-MEL-2)	GI50 (ACHN)	GI50 (NCI-H460)	GI50 (CAKI-1)	GI50 (SK-MEL-5)	GI50 (SK-OV-3)	GI50 (KM12)	GI50 (SF-268)	GI50 (SNB-19)	GI50 (NCI-H522)	GI50 (OVCAR-4)	GI50 (A549)	GI50 (UACC-257)	GI50 (NCI-H226)
C=CCN(N=O)C(=O)N(CCC)CCCCC(NC(C)=O)C(=O)NCc1ccccc1 (stereo not drawn)	> 100000 nM (inactive)	> 100000 nM (inactive)	> 100000 nM (inactive)	> 100000 nM (inactive)	88100 nM (inactive)	26900 nM (inactive)	> 100000 nM (inactive)	> 100000 nM (inactive)	> 100000 nM (inactive)	48200 nM (inactive)	67900 nM (inactive)	> 100000 nM (inactive)	59400 nM (inactive)	> 100000 nM (inactive)	> 100000 nM (inactive)	73600 nM (inactive)	64100 nM (inactive)	> 100000 nM (inactive)	> 100000 nM (inactive)	> 100000 nM (inactive)
Fc1ccc(C(OCCN2CCC3CCC(C2)N3Cc2cc3ccccc3[nH]2)c2ccc(F)cc2)cc1 (stereo not drawn)	1560 nM (inactive)	2050 nM (inactive)	1600 nM (inactive)	962 nM (active)	2000 nM (inactive)	1420 nM (inactive)	1710 nM (inactive)	1890 nM (inactive)	1780 nM (inactive)	2230 nM (inactive)	1720 nM (inactive)	2330 nM (inactive)	1710 nM (inactive)	2040 nM (inactive)	2540 nM (inactive)	1470 nM (inactive)	1950 nM (inactive)	2010 nM (inactive)	1950 nM (inactive)	1830 nM (inactive)
O=C1NCN(c2ccccc2)C12CCN(CCCSc1ccc(F)cc1)CC2	> 49100 nM (inactive)	25500 nM (inactive)	6250 nM (inactive)	1510 nM (inactive)	48500 nM (inactive)	18600 nM (inactive)	15100 nM (inactive)	19700 nM (inactive)	13000 nM (inactive)	> 51500 nM (inactive)	6440 nM (inactive)	> 100000 nM (inactive)	30200 nM (inactive)	28800 nM (inactive)	97300 nM (inactive)	> 83900 nM (inactive)	13800 nM (inactive)	33100 nM (inactive)	2920 nM (inactive)	25500 nM (inactive)
O=C1NCN(c2ccccc2)C12CCN(CCCN1CCN(CCOC(c3ccc(F)cc3)c3ccc(F)cc3)CC1)CC2	2610 nM (inactive)	1950 nM (inactive)	1880 nM (inactive)	1520 nM (inactive)	1740 nM (inactive)	2040 nM (inactive)	1960 nM (inactive)	1990 nM (inactive)	2000 nM (inactive)	2120 nM (inactive)	1690 nM (inactive)	2220 nM (inactive)	2430 nM (inactive)	1870 nM (inactive)	2720 nM (inactive)	1900 nM (inactive)	2920 nM (inactive)	2030 nM (inactive)	1850 nM (inactive)	1860 nM (inactive)
C=CS(=O)(=O)c1c2cc(OC)ccc2nc2ccc(OC)cc12	3120 nM (inactive)	14800 nM (inactive)	7460 nM (inactive)	4340 nM (inactive)	3080 nM (inactive)	2370 nM (inactive)	19000 nM (inactive)	3350 nM (inactive)	5120 nM (inactive)	4220 nM (inactive)	14100 nM (inactive)	17700 nM (inactive)	9890 nM (inactive)	8570 nM (inactive)	12600 nM (inactive)	1730 nM (inactive)	13100 nM (inactive)	17100 nM (inactive)	7530 nM (inactive)	15600 nM (inactive)
O=C1C(Cl)=C(c2ccc([N+](=O)[O-])cc2)C(=O)c2c(O)cccc21	1960 nM (inactive)	4170 nM (inactive)	979 nM (active)	1820 nM (inactive)	1920 nM (inactive)	379 nM (active)	713 nM (active)	1110 nM (active)	2300 nM (inactive)	1290 nM (inactive)	1870 nM (inactive)	2870 nM (inactive)	1110 nM (active)	843 nM (active)	1450 nM (inactive)	292 nM (active)	1930 nM (inactive)	3280 nM (inactive)	1900 nM (inactive)	1730 nM (inactive)
CC1(C)CCC(C)(C)c2c1ccc(O)c2Cc1c(O)ccc2c1C(C)(C)CCC2(C)C	2180 nM (inactive)	2190 nM (inactive)	1880 nM (inactive)	2130 nM (inactive)	1920 nM (inactive)	1870 nM (inactive)	1650 nM (inactive)	1740 nM (inactive)	2470 nM (inactive)	2150 nM (inactive)	1870 nM (inactive)	2300 nM (inactive)	1950 nM (inactive)	2470 nM (inactive)	2280 nM (inactive)	1970 nM (inactive)	1810 nM (inactive)	2270 nM (inactive)	1850 nM (inactive)	1880 nM (inactive)
CN(C)CCNC(=O)c1cccc2[nH]c(-c3ccc(Cl)cc3)nc12	3960 nM (inactive)	8770 nM (inactive)	–	2970 nM (inactive)	2690 nM (inactive)	2760 nM (inactive)	13400 nM (inactive)	–	3120 nM (inactive)	2820 nM (inactive)	4800 nM (inactive)	11400 nM (inactive)	6950 nM (inactive)	12700 nM (inactive)	7870 nM (inactive)	6140 nM (inactive)	7240 nM (inactive)	3660 nM (inactive)	7780 nM (inactive)	4590 nM (inactive)
